{
  "source": "patent US11319317B2",
  "about": "“(Hetero)arylamide compound for inhibiting protein kinase activity” (Shenzhen TargetRx, Inc., priority 2017, dated 2022)",
  "key": {"Ba/F3 parent cells": {"tested_on": "Ba/F3 parent cells", "test": "Cytotoxicity experiment (CellTiter-Glo), Ba/F3 parent cells", "assay_type": "cell-based", "details": "Ba/F3 parental cells with 8 ng/ml IL-3, 3 days incubation", "method": "1. […] The cell plates were placed in carbon dioxide culture and incubated overnight.\n2. Preparation of test compounds: The test compounds were dissolved in DMSO and subjected to a 3.16-fold gradient dilution in triplicate, 9 concentrations were obtained, starting from the concentration of 10 μM.\n3. Treatment of Cells with compounds: Compounds at various concentrations were transferred to cell plates. The cell plates were incubated in a carbon dioxide incubator for 3 days.\n4. Detection: CellTiter-Glo4 reagent was added to the cell plates, which were incubated for 30 minutes at room temperature to stabilize the luminescence signal. Readings were performed using a PerkinElmer Envision multi-label analyzer."}, "[1]": {"test": "Pharmacokinetic experiment in rats", "assay_type": "in vivo, Sprague-Dawley rats", "parameters": "Cl pred: unit not given here", "details": "rat; for MRT inf: read-out: MRTINF pred; for F (oral availability): PO 20 mg/kg vs IV 2 mg/kg", "method": "Rats were fed with a standard diet and water. Fasting began 16 hours before the test. The drugs were dissolved in PEG400 and dimethyl sulfoxide. Blood was collected from the eyelids at a time point of 0.083 hour, 0.25 hour, 0.5 hour, 1 hour, 2 hours, 4 hours, 6 hours, 8 hours, 12 hours, and 24 hours after administration. Rats were briefly anesthetized after inhalation of ether, and 300 μL of blood samples were collected from the eyelids to test tubes. There was 30 μL of 1% heparin salt solution in the test tube. […] After the blood sample was collected at the last time point, rats were anesthetized with ether and sacrificed. Immediately after the collection, blood samples were sufficiently mixed by gently inverting the tube at least 5 times, and were placed on ice. […] Plasma was stored at −80° C. prior to analysis. The concentration of the compounds disclosed herein in plasma was determined by LC-MS/MS. Pharmacokinetic parameters were calculated based on drug concentrations in plasma of each animal at different time points."}, "Ebola virus": {"tested_on": "Ebola virus", "details": "in vitro; cited from earlier work"}, "CML": {"tested_on": "CML", "details": "combined with nilotinib; cited from earlier work"}, "[2]": {"details": "male, Sprague-Dawley, plasma, IV 2 mg/kg single dose"}, "[3]": {"details": "male, Sprague-Dawley, plasma, PO 20 mg/kg single dose"}},
  "note": "Read-outs that look alike come from different tables or passages of the source.",
  "data": [
    {"smiles": "O=C(Nc1ccc(OC(F)(F)Cl)cc1)c1cnc(N2CC[C@@H](O)C2)c(-c2cnn[nH]2)c1", "note": "[Example 4, (R)-6-(3-hydroxypyrrolidin-1-yl)-5-(1H-1,2,3-triazol-5-yl)-N-(4-(chlorodifluoromethoxy)phenyl)nicotinamide]", "values": [
      {"measurement": "IC50", "setting": "Ba/F3 parent cells; Mus musculus, BaF3, 72 h", "result": "> 1", "unit": "µM"}
    ]},
    {"smiles": "O=C(Nc1ccc(OC(F)(F)Cl)cc1)c1cnc(N2CC[C@@H](O)C2)c(-c2ncns2)c1", "note": "[Example 6]", "values": [
      {"measurement": "IC50", "setting": "Ba/F3 parent cells; Mus musculus, BaF3, 72 h", "result": "> 1", "unit": "µM"}
    ]},
    {"smiles": "O=C(Nc1ccc(OC(F)(F)Cl)cc1)c1cnc(N2CC[C@@H](O)C2)c(-c2nnn[nH]2)c1", "note": "[Example 5, (R)-6-(3-hydroxypyrrolidin-1-yl)-5-(1H-1,2,34-tetrazol-5-yl)-N-(4-(chlorodifluoromethoxy)phenyl)nicotinamide]", "values": [
      {"measurement": "IC50", "setting": "Ba/F3 parent cells", "result": "> 1", "unit": "µM"}
    ]},
    {"smiles": "O=C(Nc1ccc(OC(F)(F)Cl)cc1)c1cnc(N2CC[C@@H](O)C2)c(-c2cnsc2)c1", "note": "[Example 2, (R)-6-(3-hydroxypyrrolidin-1-yl)-5-(isothiazol-4-yl)-N-(4-(chlorodifluoromethoxy)phenyl) nicotinamide]", "values": [
      {"measurement": "IC50", "setting": "Ba/F3 parent cells; Mus musculus, BaF3, 72 h", "result": "> 1", "unit": "µM"},
      {"measurement": "AUC(0-t)", "setting": "[1]; [2]", "result": 5450, "unit": "ng·h/mL"},
      {"measurement": "Cmax", "setting": "[1]; [2]", "result": 5280, "unit": "ng/mL"},
      {"measurement": "MRT inf", "setting": "[1]; [2]", "result": 1.17, "unit": "h"},
      {"measurement": "Vd", "setting": "[1]; male, Sprague-Dawley, plasma, IV 2 mg/kg single dose, read-out: Vz pred", "result": 0.57, "unit": "L/kg"},
      {"measurement": "AUC(0-t)", "setting": "[1]; [3]", "result": 21100, "unit": "ng·h/mL"},
      {"measurement": "Cmax", "setting": "[1]; [3]", "result": 2580, "unit": "ng/mL"},
      {"measurement": "MRT inf", "setting": "[1]; [3]", "result": 5.13, "unit": "h"},
      {"measurement": "Cl pred", "setting": "[1]; IV 2 mg/kg single dose", "result": 0.37},
      {"measurement": "Cl pred", "setting": "[1]; PO 20 mg/kg single dose", "result": 0.96},
      {"measurement": "Vz pred", "setting": "[1]; PO 20 mg/kg single dose", "result": 2.56, "unit": "L/kg"},
      {"measurement": "F (oral availability)", "setting": "[1]", "result": 38.70, "unit": "%"},
      {"measurement": "metabolic parameters (Cmax, AUClast, F %) compared with ABL-001", "setting": "[1]; oral administration", "result": "better metabolic parameters"}
    ]},
    {"smiles": "Cc1ccc(NC(=O)c2ccc(CN3CCN(C)CC3)cc2)cc1Nc1nccc(-c2cccnc2)n1", "note": "[Imatinib]", "values": [
      {"measurement": "release of Ebola viral particles from infected cells", "setting": "Ebola virus", "result": "stop the release of Ebola viral particles"}
    ]},
    {"smiles": "Cc1cn(-c2cc(NC(=O)c3ccc(C)c(Nc4nccc(-c5cccnc5)n4)c3)cc(C(F)(F)F)c2)cn1", "note": "[nilotinib]", "values": [
      {"measurement": "release of Ebola viral particles from infected cells", "setting": "Ebola virus", "result": "stop the release of Ebola viral particles"}
    ]},
    {"smiles": "O=C(Nc1ccc(OC(F)(F)Cl)cc1)c1cnc(N2CC[C@@H](O)C2)c(-c2ccns2)c1", "note": "[Example 3, (R)-6-(3-hydroxypyrrolidin-1-yl)-5-(isothiazol-5-yl)-N-(4-(chlorodifluoromethoxy)phenyl) nicotinamide]", "values": [
      {"measurement": "IC50", "setting": "Ba/F3 parent cells; Mus musculus, BaF3, 72 h", "result": "> 1", "unit": "µM"}
    ]},
    {"smiles": "O=C(Nc1ccc(OC(F)(F)Cl)cc1)c1cnc(N2CC[C@@H](O)C2)c(-c2ccn[nH]2)c1", "note": "[ABL-001, (R)—N-(4-(chlorodifluoromethoxy)phenyl)-6-(3-hydroxypyrrolidin-1-yl)-5-(1H-pyrazol-5-yl)nicotinamide, reference compound]", "values": [
      {"measurement": "eradication of CML in a mouse model", "setting": "CML", "result": "effective in eradicating CML"},
      {"measurement": "F (oral availability)", "setting": "[1]", "result": 19.86, "unit": "%"}
    ]},
    {"smiles": "O=C(Nc1ccc(OC(F)(F)Cl)cc1)c1cnc(N2CC[C@@H](O)C2)c(-c2ccsn2)c1", "note": "[Example 1, (R)-6-(3-hydroxypyrrolidin-1-yl)-5-(isothiazol-3-yl)-N-(4-(chlorodifluoromethoxy)phenyl) nicotinamide]", "values": [
      {"measurement": "IC50", "setting": "Ba/F3 parent cells; Mus musculus, BaF3, 72 h", "result": "> 1", "unit": "µM"}
    ]}
  ]
}
